The values below come from ChEMBL document CHEMBL4354781, “Drug-resistance in Mycobacterium tuberculosis: where we stand” (2019).

Holding throughout (type): functional
Assay [1] deals with Mycobacterium tuberculosis. Nature of the assay: Antitubercular activity against resistant Mycobacterium tuberculosis harboring rrs A1401G mutant after 3 to 6 weeks.
Assay [2] deals with Mycobacterium tuberculosis. As to the kind of experiment: Antitubercular activity against resistant Mycobacterium tuberculosis harboring rrs A1401G mutant.
Assay [3] concerns Mycobacterium tuberculosis. Nature of the assay: Antitubercular activity against resistant Mycobacterium tuberculosis harboring embCAB Met306IIe/Val mutant.
Assay [4] deals with Mycobacterium tuberculosis. As to the kind of experiment: Antitubercular activity against resistant Mycobacterium tuberculosis harboring embCAB Gly406Asp/Ala mutant.
The subject of assay [5] is Mycobacterium tuberculosis. As to the kind of experiment: Antitubercular activity against resistant Mycobacterium tuberculosis Bangladesh isolate harboring inhA Promoter (c-15 t)/IIe21Thr mutant.
Assay [6] relates to Mycobacterium tuberculosis. As to the kind of experiment: Antitubercular activity against resistant Mycobacterium tuberculosis Bangladesh isolate harboring inhA Promoter (c-15 t).
Assay [7] relates to Mycobacterium tuberculosis. Nature of the assay: Antitubercular activity against resistant Mycobacterium tuberculosis TDR harboring inhA Promoter (c-15 t)/Ser94Ala mutant.
For assay [8], the system named is Mycobacterium tuberculosis. Nature of the assay: Antitubercular activity against resistant Mycobacterium tuberculosis Bangladesh isolate harboring katG Ser315Thr mutant.
Assay [9] deals with Mycobacterium tuberculosis. As to the kind of experiment: Antitubercular activity against resistant Mycobacterium tuberculosis Bangladesh isolate harboring inhA Promoter (c-15 t)/Ser94Ala mutant.
For assay [10], the system named is Mycobacterium tuberculosis. As to the kind of experiment: Antitubercular activity against resistant Mycobacterium tuberculosis TDR harboring inhA Promoter (c-15 t) mutant.
The subject of assay [11] is Mycobacterium tuberculosis. As to the kind of experiment: Antitubercular activity against resistant Mycobacterium tuberculosis TDR harboring inhA Promoter (c-15 t)/IIe21Thr mutant.
The subject of assay [12] is Mycobacterium tuberculosis. Nature of the assay: Antitubercular activity against resistant Mycobacterium tuberculosis TDR harboring katG Ser315Thr mutant.
Assay [13] relates to Mycobacterium tuberculosis. Nature of the assay: Antitubercular activity against resistant Mycobacterium tuberculosis harboring rrs G37T mutant after 3 to 6 weeks.
The subject of assay [14] is Mycobacterium tuberculosis. As to the kind of experiment: Antitubercular activity against resistant Mycobacterium tuberculosis harboring rrs C1402T mutant after 3 to 6 weeks.
In assay [15] the test system is Mycobacterium tuberculosis. As to the kind of experiment: Antitubercular activity against resistant Mycobacterium tuberculosis harboring rrs G1484T/C-12T mutant after 3 to 6 weeks.
For assay [16], the system named is Mycobacterium tuberculosis. Nature of the assay: Antitubercular activity against resistant Mycobacterium tuberculosis harboring gyrA Asp94His mutant incubated for 28 days by absolute concentration method.
Assay [17] concerns Mycobacterium tuberculosis. As to the kind of experiment: Antitubercular activity against resistant Mycobacterium tuberculosis harboring gyrA Asp94Asn mutant incubated for 28 days by absolute concentration method.
In assay [18] the test system is Mycobacterium tuberculosis. Nature of the assay: Antitubercular activity against resistant Mycobacterium tuberculosis harboring gyrB Ala90Val mutant incubated for 28 days by absolute concentration method.
Assay [19] concerns Mycobacterium tuberculosis. As to the kind of experiment: Antitubercular activity against resistant Mycobacterium tuberculosis harboring gyrA Asp94Tyr mutant incubated for 28 days by absolute concentration method.
In assay [20] the test system is Mycobacterium tuberculosis. As to the kind of experiment: Antitubercular activity against resistant Mycobacterium tuberculosis harboring gyrA Asp94Gly mutant incubated for 28 days by absolute concentration method.
Assay [21] relates to Mycobacterium tuberculosis. Nature of the assay: Antitubercular activity against resistant Mycobacterium tuberculosis harboring gyrB T511N mutant incubated for 28 days by absolute concentration method.
For assay [22], the system named is Mycobacterium tuberculosis. Nature of the assay: Antitubercular activity against resistant Mycobacterium tuberculosis harboring rplC Cys154Arg mutant.
The subject of assay [23] is Mycobacterium tuberculosis. Nature of the assay: Antitubercular activity against multidrug resistant Mycobacterium tuberculosis.
Assay [24] has as its system Mycobacterium tuberculosis. Nature of the assay: Antitubercular activity against resistant Mycobacterium tuberculosis harboring pncA Cys138S mutant incubated for 3 weeks.
In assay [25] the test system is Mycobacterium tuberculosis. As to the kind of experiment: Antitubercular activity against resistant Mycobacterium tuberculosis harboring pncA D8N mutant incubated for 3 weeks.
In assay [26] the test system is Mycobacterium tuberculosis. Nature of the assay: Antitubercular activity against resistant Mycobacterium tuberculosis 8 harboring rpoB His526Pro mutant by absolute concentration-microtiter method.
Assay [27] concerns Mycobacterium tuberculosis. As to the kind of experiment: Antitubercular activity against resistant Mycobacterium tuberculosis 76 harboring rpoB Ser531Leu mutant after 4 weeks by absolute concentration-microtiter method.
For assay [28], the system named is Mycobacterium tuberculosis. Nature of the assay: Antitubercular activity against resistant Mycobacterium tuberculosis 26 harboring rpoB Ser531Leu mutant after 4 weeks by absolute concentration-microtiter method.
Assay [29] has as its system Mycobacterium tuberculosis. Nature of the assay: Antitubercular activity against resistant Mycobacterium tuberculosis 73 harboring rpoB His526Tyr mutant by absolute concentration-microtiter method.
Assay [30] deals with Mycobacterium tuberculosis. As to the kind of experiment: Antitubercular activity against resistant Mycobacterium tuberculosis 2 harboring rpoB Ser531Leu mutant after 4 weeks by absolute concentration-microtiter method.
The test system of assay [31] is Mycobacterium tuberculosis. Nature of the assay: Antitubercular activity against resistant Mycobacterium tuberculosis 1 harboring rpoB Ser531Leu mutant after 4 weeks by absolute concentration-microtiter method.
In assay [32] the test system is Mycobacterium tuberculosis. As to the kind of experiment: Antitubercular activity against resistant Mycobacterium tuberculosis 7 harboring rpoB His526Tyr mutant by absolute concentration-microtiter method.
Assay [33] relates to Mycobacterium tuberculosis. As to the kind of experiment: Antitubercular activity against resistant Mycobacterium tuberculosis 3 harboring rpoB Ser531Leu mutant after 4 weeks by absolute concentration-microtiter method.
In assay [34] the test system is Mycobacterium tuberculosis. As to the kind of experiment: Antitubercular activity against resistant Mycobacterium tuberculosis 23 harboring rpoB His526Asp mutant by absolute concentration-microtiter method.
For assay [35], the system named is Mycobacterium tuberculosis. Nature of the assay: Antitubercular activity against resistant Mycobacterium tuberculosis 4 harboring rpoB Ser531Leu mutant after 4 weeks by absolute concentration-microtiter method.
In assay [36] the test system is Mycobacterium tuberculosis. Nature of the assay: Antitubercular activity against resistant Mycobacterium tuberculosis 72 harboring rpoB His526Asp mutant by absolute concentration-microtiter method.
Assay [37] deals with Mycobacterium tuberculosis. Nature of the assay: Antitubercular activity against resistant Mycobacterium tuberculosis 74 harboring rpoB His526Tyr mutant by absolute concentration-microtiter method.
The subject of assay [38] is Mycobacterium tuberculosis. Nature of the assay: Antitubercular activity against resistant Mycobacterium tuberculosis 5 harboring rpoB His526Tyr mutant by absolute concentration-microtiter method.
The subject of assay [39] is Mycobacterium tuberculosis. Nature of the assay: Antitubercular activity against resistant Mycobacterium tuberculosis 21 harboring rpoB Ser531Leu mutant after 4 weeks by absolute concentration-microtiter method.
Assay [40] relates to Mycobacterium tuberculosis. Nature of the assay: Antitubercular activity against resistant Mycobacterium tuberculosis 75 harboring rpoB Ser531Leu mutant after 4 weeks by absolute concentration-microtiter method.
For assay [41], the system named is Mycobacterium tuberculosis. Nature of the assay: Antitubercular activity against resistant Mycobacterium tuberculosis 6 harboring rpoB Ser531Leu mutant after 4 weeks by absolute concentration-microtiter method.

SMILES strings stand for the structures. Converted amounts (≈) assume the structure as drawn. Numbered stars: 1 amine (or outer) side, 2 acyl side, 3 side chain; on linkers, the order of the positions; unused ones are H or OH. Bridge positions count the residues as written; N and C are the ends. Square brackets hold non-standard residues; d marks the D form. Peptide text beside a SMILES is read from it. * marks the point of attachment. X1 = N=C1NCC[C@H]([C@H](N[*:1])C(=O)[*:2])N1; ΔAla(Z-3-ureido) = NC(=O)N/C=C(\N)C(=O)O; β3hOrn = NCCC[C@H](N)CC(=O)*; Dap = NC[C@H](N)C(=O)O

As a reminder, the MIC is the lowest concentration found to suppress growth. A higher MIC goes with weaker potency. `N=C1NCC[C@H]([C@@H]2NC(=O)/C(=C/NC(N)=O)NC(=O)[C@H](CNC(=O)C[C@@H](N)CCCN)NC(=O)[C@H](CO)NC(=O)[C@@H](N)CNC2=O)N1` (H-[Dap]S[Dap](β3hOrn)[ΔAla(Z-3-ureido)][X1]; lactam 1-C) yielded a minimum inhibitory concentration (MIC) in assay [1] above 2.5 µg/mL.

In turn, `NCC[C@H](O)C(=O)N[C@@H]1C[C@H](N)[C@@H](O[C@H]2O[C@H](CN)[C@@H](O)[C@H](O)[C@H]2O)[C@H](O)[C@H]1O[C@H]1O[C@H](CO)[C@@H](O)[C@H](N)[C@H]1O` [AMIKACIN] came in with an MIC in [2] of 4 µg/mL (≈ 6.83 µM).

Regarding `CC[C@@H](CO)NCCN[C@@H](CC)CO` [ETHAMBUTOL], the MIC in assay [3] and in [4] was 10 to 50 µg/mL in each case.

In the case of `NNC(=O)c1ccncc1` [ISONIAZID], the MIC in assay [5] was 3.2 to 12.8 µg/mL; in [6] it was 0.16 to 0.8 µg/mL (≈ 1.17 to 5.83 µM); in [7], 3.2 to 12.8 µg/mL; in assay [8], above 19.2 µg/mL; in assay [9], 3.2 to 12.8 µg/mL; in [10] it was 0.16 to 0.8 µg/mL. For the same compound, the values for the MIC in assay [11] and in assay [12] were 3.2 to 12.8 µg/mL and above 19.2 µg/mL, respectively.

As to `NC[C@H]1O[C@H](O[C@H]2[C@H](O)[C@@H](O[C@H]3O[C@H](CO)[C@@H](O)[C@H](N)[C@H]3O)[C@H](N)C[C@@H]2N)[C@H](O)[C@@H](O)[C@@H]1O` [KANAMYCIN], the MIC in [1], in [13], in assay [14] and in assay [15] was above 2.5 µg/mL each time.

As for `C[C@H]1COc2c(N3CCN(C)CC3)c(F)cc3c(=O)c(C(=O)O)cn1c23.C[C@H]1COc2c(N3CCN(C)CC3)c(F)cc3c(=O)c(C(=O)O)cn1c23.O` [LEVOFLOXACIN], the MIC in [16] was above 10 µg/mL; in assay [17], above 10 µg/mL; in assay [18], above 1 µg/mL; in assay [19] it was above 10 µg/mL; in [20], above 10 µg/mL; in [21] it was above 1 µg/mL.

Regarding `CC(=O)NC[C@H]1CN(c2ccc(N3CCOCC3)c(F)c2)C(=O)O1` [LINEZOLID], the minimum inhibitory concentration (MIC) in assay [22] was above 1 µg/mL; in [23], 0.125 to 0.5 µg/mL (≈ 0.371 to 1.48 µM).

As to `NC(=O)c1cnccn1` [PYRAZINAMIDE], the MIC result in [24] and in assay [25] was “>=400 - 800 ug ml-1” each time.

Turning to `CO[C@H]1/C=C/O[C@@]2(C)Oc3c(C)c(O)c4c(O)c(c(/C=N/N5CCN(C)CC5)c(O)c4c3C2=O)NC(=O)/C(C)=C\C=C\[C@H](C)[C@H](O)[C@@H](C)[C@@H](O)[C@@H](C)[C@H](OC(C)=O)[C@@H]1C` [RIFAMPIN], the MIC result in assay [26], in [27], in assay [28], in [29], in assay [30] and in assay [31] was “>=2 - 200 ug ml-1” in each case. For the same compound, the MIC entry in [32], in [33], in assay [34], in assay [35], in [36] and in assay [37] was “>=2 - 200 ug ml-1” in each case. In addition, the MIC entry in [38], in assay [39], in assay [40] and in assay [41] was “>=2 - 200 ug ml-1” throughout.
